Experimental data as given in US7935700B2, “Morpholine compound” (Mitsubishi Tanabe Pharma Corporation, priority 2004, dated 2011).
Structures can show the parent of a compound that is named as a salt. Where two headings read alike, the source gives them in different places.

Experiments:
[1] = molecular target: T1, CCR3 (Homo sapiens, UniProt P51677); assay: Effect on intracellular calcium concentration in eosinophils upon CCL11 stimulation; type: cell-based; details: peripheral blood eosinophils of healthy subject, agonist CCL11 1.0 nmol/L, compound 3 min before stimulation, Fura-2 AM; read-out: IC50 (50% suppression of the increase in the intracellular calcium concentration)
T1 construct: Eosinophils separated from peripheral blood of healthy subject; endogenous in cells; host or cells: eosinophils separated from peripheral blood of healthy subject
T1 sequence (P51677 1-355): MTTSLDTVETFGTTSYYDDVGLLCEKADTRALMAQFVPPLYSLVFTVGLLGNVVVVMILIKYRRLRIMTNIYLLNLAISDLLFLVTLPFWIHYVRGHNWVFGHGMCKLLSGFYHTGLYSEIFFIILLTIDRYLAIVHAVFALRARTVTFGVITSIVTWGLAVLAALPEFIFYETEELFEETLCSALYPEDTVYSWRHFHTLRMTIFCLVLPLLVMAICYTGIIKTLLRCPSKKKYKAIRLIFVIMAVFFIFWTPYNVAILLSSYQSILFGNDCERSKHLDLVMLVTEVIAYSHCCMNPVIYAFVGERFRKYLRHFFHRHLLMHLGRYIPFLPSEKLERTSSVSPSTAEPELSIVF
Protocol: Effect on Intracellular Calcium Concentration
The effect of the compound of the present invention on intracellular calcium mobilization in peripheral blood eosinophils of healthy subject upon CCL11 stimulation was examined by the following method.
Eosinophils separated from peripheral blood of healthy subject were suspended in 0.5% bovine serum albumin-containing phosphate buffered saline, and incubated at 37° C. for 45 min in the presence of 5 μmol/L of Fura-2 AM (manufactured by DOJINDO LABORATORIES).
After incubation, the cells were washed 3 times with a measurement buffer (10 mmol/L HEPES, and 0.5% bovine serum albumin-containing hanks' balanced salt solution) to remove Fura-2 AM that was not incorporated into the cells.
Finally, the cells were adjusted to 1×10^6 cells/mL with the measurement buffer and preserved in a dark place until measurement. The intracellular calcium was measured using FDSS3000 manufactured by Hamamatsu Photonics K.K. In other words, the cell suspension (0.1 mL) loaded with Fura-2 AM was placed in a 96 well plate for measurement, the fluorescence intensity to the excitation light at wavelengths 340 nm and 380 nm was measured by FDSS3000, the ratio of the fluorescence intensity to the excitation light at these two wavelengths was determined, based on which the intracellular calcium concentration was calculated. As the agonist, used was CCL11 (1.0 nmol/L), which is a CCR3 selective ligand, and the antagonistic activity was determined as 50% suppression rate (IC50 value) of the increase in the intracellular calcium concentration, when eosinophils were treated with various concentrations of the compound of the present invention at 3 min before agonist stimulation.

[2] = system: mouse ovalbumin (OVA) induced allergic and biphasic ear edema; assay: Antigen (OVA) induced allergic and biphasic ear edema model; type: in vivo; details: male BALB/c mice, oral once a day from 2 days before induction, 3 or 10 mg/kg tested
Protocol: 3: Effect on Antigen Induced Allergic and Biphasic Ear Edema Model
The in vivo effect of the compound of the present invention was examined using a mouse ovalbumin (OVA) induced allergic and biphasic ear edema model. The model was prepared according to the method of Sugawara et al. (Allergy & Clinical Immunology International, Supplement No. 2, P 785, 2000). In other words, male BALB/c mice were immunized by intraperitoneal injection with 10 μg of OVA and 1 mg of aluminum hydroxide gel (Alum). At 14 days after immunization, OVA (5 μg) were subcutaneously injected to the both ears of the mouse, whereby ear edema was induced. The thickness of the ears was measured using a dial sickness gauge immediately before subcutaneous injection and 1 and 24 hrs after subcutaneous injection of OVA. The compound of the present invention was suspended in a vehicle, 0.5% hydroxypropylmethyl cellulose solution, and orally administered at 3 mg/kg or 10 mg/kg once a day using an orally gavage needle from 2 days before ear edema induction.

[3] = ear thickness 1 hr after OVA, read-out: Dose that showed a significant suppressive action vs vehicle, Immediate phase
[4] = ear thickness 24 hrs after OVA, read-out: Dose that showed a significant suppressive action vs vehicle, Late phase

IC50 [1] [nM]	Structure (SMILES)	minimal effective dose [2, 3] [mg/kg]	minimal effective dose [2, 4] [mg/kg]
3.1	O=C(O)CCNC(=O)c1csc(SCC(=O)NC[C@H]2CN(Cc3ccc(Cl)c(Cl)c3)CCO2)n1 [Example 46, (2S)-{4-[(2-carboxyethyl)aminocarbonyl]thiazol-2-ylthio}-N-{[4-(3,4-dichlorobenzyl)morpholin-2-yl]methyl}acetamide hydrochloride]	10	10
2	NC(=O)CNC(=O)c1ccc(SCC(=O)NC[C@H]2CN(Cc3ccc(Cl)c(Cl)c3)CCO2)cc1 [Example 40, (2S)-{4-[(2-amino-2-oxoethyl)aminocarbonyl]phenylthio}-N-{[4-(3,4-dichlorobenzyl)morpholin-2-yl]methyl}acetamide]	3	3
2.5	NC(=O)Cc1csc(SCC(=O)NC[C@H]2CN(Cc3ccc(F)cc3)CCO2)n1 [Example 107, (2S)-[4-(carbamoylmethyl)thiazol-2-ylthio]-N-{[4-(4-fluorobenzyl)morpholin-2-yl]methyl}acetamide]		
2.6	NC(=O)CNC(=O)c1csc(SCC(=O)NC[C@H]2CN(Cc3ccc(F)c(F)c3)CCO2)n1 [Example 115, (2S)-[4-(2-amino-2-oxoethyl)aminocarbonylthiazol-2-ylthio]-N-{[4-(3,4-difluorobenzyl)morpholin-2-yl]methyl}acetamide]		
16.2	CC(=O)c1cc2cc(SCC(=O)NC[C@H]3CN(Cc4ccc(Cl)c(Cl)c4)CCO3)ccc2oc1=O [Example 174, (2S)-(3-acetyl-2-oxo-2H-chromen-6-ylthio)-N-{[4-(3,4-dichlorobenzyl)morpholin-2-yl]methyl}acetamide]		
3.6	Nc1nnc(SCC(=O)NC[C@H]2CN(Cc3ccc(F)c(F)c3)CCO2)s1 [Example 125, (2S)-(5-amino-1,3,4-thiadiazol-2-ylthio)-N-{[4-(3,4-difluorobenzyl)morpholin-2-yl]methyl}acetamide]	10	3
0.5	NC(=O)/C=C/c1csc(SCC(=O)NC[C@H]2CN(Cc3ccc(Cl)c(Cl)c3)CCO2)n1 [Example 71, (2S)-(E)-[4-(2-carbamoylethen-1-yl)thiazol-2-ylthio]-N-{[4-(3,4-dichlorobenzyl)morpholin-2-yl]methyl}acetamide]		
0.1	NC(=O)Cc1cncc(SCC(=O)NC[C@H]2CN(Cc3ccc(Cl)c(Cl)c3)CCO2)n1 [Example 223, (2S)-[6-(carbamoylmethyl)pyrazin-2-ylthio]-N-{[4-(3,4-dichlorobenzyl)morpholin-2-yl]methyl}acetamide]		
0.9	NC(=O)c1csc(SCC(=O)NC[C@H]2CN(Cc3ccc(F)c(Cl)c3)CCO2)n1 [Example 112, (2S)-(4-carbamoylthiazol-2-ylthio)-N-{[4-(3-chloro-4-fluorobenzyl)morpholin-2-yl]methyl}acetamide]		
3.9	O=C(CSc1ccc(=O)[nH]n1)NC[C@H]1CN(Cc2ccc(F)c(F)c2)CCO1 [Example 198, (2S)-N-{[4-(3,4-difluorobenzyl)morpholin-2-yl]methyl}-(6-oxo-1,6-dihydropyridazin-3-ylthio)acetamide]	10	10
0.9	NC(=O)Cc1csc(SCC(=O)NC[C@H]2CN(Cc3ccc(F)c(F)c3)CCO2)n1 [Example 79, (2S)-[4-(carbamoylmethyl)thiazol-2-ylthio]-N-{[4-(3,4-difluorobenzyl)morpholin-2-yl]methyl}acetamide]		
1.5	Cc1sc(SCC(=O)NC[C@H]2CN(Cc3ccc(Cl)c(Cl)c3)CCO2)nc1C(N)=O [Example 110, (2S)-(4-carbamoyl-5-methylthiazol-2-ylthio)-N-{[4-(3,4-dichlorobenzyl)morpholin-2-yl]methyl}acetamide]		
2.1	O=C(CSc1nc(-c2nnn[nH]2)cs1)NC[C@H]1CN(Cc2ccc(Cl)c(Cl)c2)CCO1 [Example 59, (2S)-N-{[4-(3,4-dichlorobenzyl)morpholin-2-yl]methyl}-[4-(1H-tetrazol-5-yl)thiazol-2-ylthio]acetamide]		
0.3	O=C(CSc1nc2cccnc2s1)NC[C@H]1CN(Cc2ccc(Cl)c(Cl)c2)CCO1 [Example 64, (2S)-N-{[4-(3,4-dichlorobenzyl)morpholin-2-yl]methyl}-([1,3]thiazolo[5,4-b]pyridin-2-ylthio)acetamide]	10	3
2.5	O=C(CSc1ncccn1)NC[C@H]1CN(Cc2ccc(Cl)c(Cl)c2)CCO1 [Example 146, (2S)-N-{[4-(3,4-dichlorobenzyl)morpholin-2-yl]methyl}-(pyrimidin-2-ylthio)acetamide]	3	3
22.3	Cc1sc(SCC(=O)NC[C@H]2CN(Cc3ccc(Cl)c(Cl)c3)CCO2)nc1C(=O)O [Example 109, (2S)-(4-carboxy-5-methylthiazol-2-ylthio)-N-{[4-(3,4-dichlorobenzyl)morpholin-2-yl]methyl}acetamide]		
2.4	NC(=O)c1cncc(SCC(=O)NC[C@H]2CN(Cc3ccc(Cl)c(Cl)c3)CCO2)c1 [Example 207, (2S)-(3-carbamoylpyridin-5-ylthio)-N-{[4-(3,4-dichlorobenzyl)morpholin-2-yl]methyl}acetamide]		
2.6	Nc1nnc(SCC(=O)NC[C@H]2CN(Cc3cccc(Cl)c3)CCO2)s1 [Example 123, (2S)-(5-amino-1,3,4-thiadiazol-2-ylthio)-N-{[4-(3-chlorobenzyl)morpholin-2-yl]methyl}acetamide]	10	10
38.5	O=C(CCCS(=O)(=O)C1CCCC1)NC[C@H]1CN(Cc2ccc(F)c(Cl)c2)CCO1 [Example 232, (2S)-4-(cyclopentanesulfonyl)-N-{[4-(3-chloro-4-fluorobenzyl)morpholin-2-yl]methyl}butyramide]		
1.1	NC(=O)c1csc(SCCCC(=O)NC[C@H]2CN(Cc3ccc(Cl)c(Cl)c3)CCO2)n1 [Example 55, (2S)-4-(4-carbamoylthiazol-2-ylthio)-N-{[4-(3,4-dichlorobenzyl)morpholin-2-yl]methyl}butyramide hydrochloride]		
5.3	CC(=O)Nc1nnc(SCC(=O)NC[C@H]2CN(Cc3ccc(Cl)c(Cl)c3)CCO2)s1 [Example 53, (2S)-(5-acetamino-1,3,4-thiadiazol-2-ylthio)-N-{[4-(3,4-dichlorobenzyl)morpholin-2-yl]methyl}acetamide]	3	3
